The supplement of paper PMC12533247

Tested on: HSV-1 K26-GFP infected primary human skin cells
Experiment: % change of HSV-1 GFP signal vs untreated infected cells; higher = less antiviral inhibition
Procedure: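 2D primary donor-derived keratinocytes (read at 20 hpi) and donor-matched dermal fibroblasts (read at 48 hpi) infected with GFP-HSV-1 K26 at MOI 1 and treated 1 h later with compound dilutions. IncuCyte GFP integrated intensity is normalised by subtracting mock-infected wells and dividing by untreated infected wells, shown as % change (-100 = full inhibition).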

Cc1cccc(C)c1N(CC(=O)Nc1ccc(-c2ncon2)cc1)C(=O)C1CCS(=O)(=O)CC1 [Amenamevir]
% change of HSV-1 GFP signal [%]
Conditions	0.001 µM	0.003 µM	0.0091 µM	0.0274 µM	0.0823 µM	0.2469 µM	0.7407 µM	2.2222 µM	6.6667 µM	20 µM
cell type: primary dermal fibroblasts, donor: 5, time (h post infection): 48	-4.89	-8.89	-13.3	-23.6	-42.3	-59.7	-74.9	-91.3	-98.98	-99.775
cell type: primary keratinocytes, donor: 3, time (h post infection): 20	13.9	12.5	4.38	0.743	-11.4	-38.9	-51.9	-68	-78.6	-83.4
cell type: primary keratinocytes, donor: 4, time (h post infection): 20	-3.16	-0.75	-11.8	-15.3	-42.6	-80.2	-87.1	-93.7	-95.2	-99.17
cell type: primary keratinocytes, donor: 5, time (h post infection): 20	1.08	2.94	-1.03	-12.8	-31.3	-49.2	-67.5	-93.4	-97.9	-99.54

COc1ccc(-c2nc(N3CCOCC3)c3sc(CN(C)c4ncc(C(=O)NO)cn4)cc3n2)cn1 [Fimepinostat]
% change of HSV-1 GFP signal [%]
Conditions	0.003 µM	0.0091 µM	0.0274 µM	0.0823 µM	0.2469 µM	0.7407 µM	2.2222 µM	6.6667 µM	20 µM	60 µM
cell type: primary dermal fibroblasts, donor: 5, time (h post infection): 48	-12.8	-13.7	-14.2	-12.3	-12	-18.4	-25.6	-32.6	-34.1	-28.4
cell type: primary keratinocytes, donor: 3, time (h post infection): 20	6.27	-3.11	2.91	1.02	-16.3	-33.2	-41.3	-43	-64.7	-48.6
cell type: primary keratinocytes, donor: 4, time (h post infection): 20	-14.2	-25.2	-17.4	-25	-33	-64.8	-69.2	-76.4	-89.2	-72.7
cell type: primary keratinocytes, donor: 5, time (h post infection): 20	-6.73	-26.4	-15.1	-24.8	-44.7	-48	-58.2	-64.6	-70.5	-57.8

Nc1ccn([C@@H]2O[C@H](CO)[C@@H](O)C2(F)F)c(=O)n1 [Gemcitabine]
% change of HSV-1 GFP signal [%]
Conditions	0.001 µM	0.003 µM	0.0091 µM	0.0274 µM	0.0823 µM	0.2469 µM	0.7407 µM	2.2222 µM	6.6667 µM	20 µM
cell type: primary dermal fibroblasts, donor: 5, time (h post infection): 48	-5.06	-5.8	-2.35	-8.4	-70.4	-97.2	-99.78	-99.91	-99.93	-99.87
cell type: primary keratinocytes, donor: 3, time (h post infection): 20	29.8	37.4	36.1	17.1	-25.6	-75.6	-97.4	-98.37	-99	-99.06
cell type: primary keratinocytes, donor: 4, time (h post infection): 20	9.34	0.292	4.89	-17.4	-50.7	-86.4	-97.6	-99.732	-99.606	-99.72
cell type: primary keratinocytes, donor: 5, time (h post infection): 20	6.72	7.7	7.12	9.71	-23	-73.3	-94.7	-99	-99.39	-99.6

CC(C)c1cnn2c(NCc3ccccc3-n3cccn3)nc(OC3CCCNC3)nc12 (centres undefined) [LDC4297]
% change of HSV-1 GFP signal [%]
Conditions	0.003 µM	0.0091 µM	0.0274 µM	0.0823 µM	0.2469 µM	0.7407 µM	2.2222 µM	6.6667 µM	20 µM	60 µM
cell type: primary dermal fibroblasts, donor: 5, time (h post infection): 48	-4.88	-5.58	-6.29	-17.5	-44.9	-60.2	-78.8	-97.65	-99.964	-99.913
cell type: primary keratinocytes, donor: 3, time (h post infection): 20	-0.466	9.74	-1.73	2.24	-13.6	-24.8	-42.6	-99.02	-99.87	-99.984
cell type: primary keratinocytes, donor: 4, time (h post infection): 20	-19.1	-22.2	-23.4	-17.1	-35.8	-61	-75.3	-99.7	-99.973	-100.04
cell type: primary keratinocytes, donor: 5, time (h post infection): 20	–	7.64	1.09	0.186	-10	-17.4	-37.8	-99.64	-99.946	-99.969

CC(=O)O[C@H]1C[C@H](O[C@H]2[C@@H](O)C[C@H](O[C@H]3[C@@H](O)C[C@H](O[C@H]4CC[C@@]5(C)[C@H](CC[C@@H]6[C@@H]5C[C@@H](O)[C@]5(C)[C@@H](C7=CC(=O)OC7)CC[C@]65O)C4)O[C@@H]3C)O[C@@H]2C)O[C@H](C)[C@H]1O[C@@H]1O[C@H](CO)[C@@H](O)[C@H](O)[C@H]1O [Lanatoside C]
% change of HSV-1 GFP signal [%]
Conditions	0.001 µM	0.003 µM	0.0091 µM	0.0274 µM	0.0823 µM	0.2469 µM	0.7407 µM	2.2222 µM	6.6667 µM	20 µM
cell type: primary dermal fibroblasts, donor: 5, time (h post infection): 48	-2.98	-9.39	-4.44	-5.88	-21.6	-99.19	-99.81	-99.972	-99.993	-99.985
cell type: primary keratinocytes, donor: 3, time (h post infection): 20	4.49	6.12	-2.17	7.86	-16.9	-96	-99.91	-99.948	-99.8	-99.941
cell type: primary keratinocytes, donor: 4, time (h post infection): 20	-0.192	-0.172	-18.5	-9.65	-38.4	-79.3	-100.1	-100.1	-100.1	-100.07
cell type: primary keratinocytes, donor: 5, time (h post infection): 20	12.3	12.4	10	-3.35	-66	-99.66	-99.948	-99.893	-99.85	-99.904
